Test results: US6790629B2 (The Regents of the University of California, priority 1997, dated 2004)
pEC50, pIC50: −log10 of the molar value.

Assays:
VR1 [1] = molecular target: T1, VR1 (Rattus norvegicus, UniProt O35433); assay: Whole-cell two-electrode voltage clamp of VR1-expressing Xenopus oocytes (vanilloid agonists and antagonists); type: cell-based; conditions: for recovery of current response following agonist removal: washout; for Hill coefficient: from agonist concentration-response analysis in VR1-expressing oocytes
T1 construct: open reading frame encoding a protein of 838 amino acids; expressed in transfected cells; host or cells: Xenopus laevis oocytes injected with VR1 cRNA
T1 sequence (O35433 whole entry): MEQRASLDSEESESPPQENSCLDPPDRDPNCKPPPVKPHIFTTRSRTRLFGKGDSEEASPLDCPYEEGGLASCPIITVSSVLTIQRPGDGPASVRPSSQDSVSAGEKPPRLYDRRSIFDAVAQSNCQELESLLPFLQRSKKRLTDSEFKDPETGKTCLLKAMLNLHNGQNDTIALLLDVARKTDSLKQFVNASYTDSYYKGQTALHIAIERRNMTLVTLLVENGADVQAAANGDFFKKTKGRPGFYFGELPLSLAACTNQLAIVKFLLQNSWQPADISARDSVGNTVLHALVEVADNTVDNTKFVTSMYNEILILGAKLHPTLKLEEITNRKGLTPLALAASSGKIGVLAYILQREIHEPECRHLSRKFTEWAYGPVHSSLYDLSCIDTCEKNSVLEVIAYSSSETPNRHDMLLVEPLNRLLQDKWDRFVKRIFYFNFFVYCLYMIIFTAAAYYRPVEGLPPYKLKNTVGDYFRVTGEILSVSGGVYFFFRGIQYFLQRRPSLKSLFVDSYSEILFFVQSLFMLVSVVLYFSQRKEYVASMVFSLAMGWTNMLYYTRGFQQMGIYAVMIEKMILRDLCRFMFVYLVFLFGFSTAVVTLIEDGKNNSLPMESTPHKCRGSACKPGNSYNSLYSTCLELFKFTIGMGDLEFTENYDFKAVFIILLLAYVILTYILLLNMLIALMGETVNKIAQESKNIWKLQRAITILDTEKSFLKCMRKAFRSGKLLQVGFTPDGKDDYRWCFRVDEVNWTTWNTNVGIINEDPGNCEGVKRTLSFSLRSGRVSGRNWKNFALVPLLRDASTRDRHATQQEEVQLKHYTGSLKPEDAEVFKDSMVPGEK
Procedure: Briefly, cRNA transcripts were synthesized from Not1-linearized VR1 cDNA templates using T7 RNA polymerase 17. Defolliculated Xenopus laevis oocytes were injected with 0.5-5 ng VR1 cRNA. Four to seven days after injection, two electrode voltage clamp recording was performed (Ehold=−60 mV for IC50 curve and thermal stimulation experiments, and […] for all other experiments) using a Geneclamp 500 amplifier (Axon Instruments) and a MacLab A/D converter (Maclab). The recording chamber was perfused at a rate of 2 ml/min with frog ringers solution containing (mM) 90 NaCl; 1.0 KCl, 2.4 NaHCO3, 0.1 BaCl2, 1.0 MgCl2, and 10 HEPES, pH 7.6. at room temperature. Prior to performing the store-operated current assays, oocytes were incubated for 1-2 hrs in calcium-free, barium-free frog ringers solution containing 1 mM EGTA and 1 μM Thapsigargin. During voltage clamp recording, these oocytes were intermittently exposed to frog ringer's solution containing 2 mM Ca2+ and no EGTA to detect calcium-dependent currents (15 second pulses at 2 minute intervals) (Petersen et al. 1995 Biochem J. 311:4144).
VR1 was expressed in Xenopus oocytes as described above (Example 3), except that CaCl2 (2 mM) was used in place of BaCl2 when generating the capsazepine inhibition curve. […] Membrane currents were recorded in the whole cell voltage clamp configuration (Vhold=−40 mV).

VR1 [2] = molecular target: T1, VR1; assay: Hydrogen ion potentiation of capsaicin response in VR1-expressing oocytes; type: cell-based; conditions: 10 μM capsaicin
Source text: To address this possibility, the effects of hydrogen ions on the cloned vanilloid receptor were examined using the oocyte expression system. […] The pH of the bath solution was changed during the experiment (as indicated by the horizontal bars in FIG. 13).

water-injected oocytes = assay: Two-electrode voltage clamp of water-injected control oocytes: capsaicin, heat, heat plus ruthenium red; type: cell-based, Xenopus
Procedure: (§1) To determine whether VR1 could mediate similar responses to heat in a different cellular environment, heat activation of VR1 was tested in the oocyte system. Oocytes injected with either VR1 cRNA or water were subjected to two-electrode voltage-clamp (Vhold=−60 mV) while the temperature of the perfusing buffer was raised from 22.7° C. to the level indicated, then held constant for 60 sec. (VR1, n =8; water, n=6 independent cells). The asterisk indicates a significant difference from water-injected oocytes (T-test, P<0.0005).
(§2) The current tracings shown in FIG. 17 were generated from representative VR1- or water-injected oocytes (Vhold=−60 mV) during successive applications of the indicated stimuli.

VR1 [3] = molecular target: T1, VR1; assay: Whole-cell patch clamp of VR1-transfected HEK293 cells, desensitization of capsaicin-evoked current; type: cell-based
Procedure: Patch-clamp recordings were carried out with transiently transfected HEK293 cells at 22° C. Standard bath solution for whole-cell recordings contained (mM) 140 NaCl, 5 KCl, 2 MgCl2, 2 CaCl2, 10 HEPES, 10 glucose, pH 7.4 (adjusted with NaOH). In calcium-free bath solution, CaCl2 was removed and 5 mM EGTA was added.
Bath solution for outside-out patch recordings and pipette solution for inside-out patch recordings contained (mM) 140 NaCl, 10 HEPES, pH 7.4 (adjusted with NaOH). Bath solution for inside-out patch recordings and pipette solutions for outside-out patch recordings and ion substitution experiments contained: (mM) 140 NaCl, 10 HEPES, 5 EGTA, pH 7.4 (adjusted with NaOH). Pipette solution for whole-cell recordings contained (mM) 140 CsCl (or 130 CsAspartate and 10 NaCl), 5 EGTA, 10 HEPES, pH 7.4 (adjusted with CsOH).
Whole-cell recording data were sampled at 20 kHz and filtered at 5 kHz for analysis (Axopatch 200 amplifier with pCLAMP software, Axon Instruments). Single-channel recording data were sampled at 10 kHz and filtered at 1 kHz. Permeability ratios for monovalent cations to Na (PX/PNa) were calculated as follows:

VRRP-1 = molecular target: T2, VRRP-1 (Rattus norvegicus, UniProt Q9WUD2); assay: Activation of VRRP-1 by capsaicin
T2 sequence (Q9WUD2 1-761): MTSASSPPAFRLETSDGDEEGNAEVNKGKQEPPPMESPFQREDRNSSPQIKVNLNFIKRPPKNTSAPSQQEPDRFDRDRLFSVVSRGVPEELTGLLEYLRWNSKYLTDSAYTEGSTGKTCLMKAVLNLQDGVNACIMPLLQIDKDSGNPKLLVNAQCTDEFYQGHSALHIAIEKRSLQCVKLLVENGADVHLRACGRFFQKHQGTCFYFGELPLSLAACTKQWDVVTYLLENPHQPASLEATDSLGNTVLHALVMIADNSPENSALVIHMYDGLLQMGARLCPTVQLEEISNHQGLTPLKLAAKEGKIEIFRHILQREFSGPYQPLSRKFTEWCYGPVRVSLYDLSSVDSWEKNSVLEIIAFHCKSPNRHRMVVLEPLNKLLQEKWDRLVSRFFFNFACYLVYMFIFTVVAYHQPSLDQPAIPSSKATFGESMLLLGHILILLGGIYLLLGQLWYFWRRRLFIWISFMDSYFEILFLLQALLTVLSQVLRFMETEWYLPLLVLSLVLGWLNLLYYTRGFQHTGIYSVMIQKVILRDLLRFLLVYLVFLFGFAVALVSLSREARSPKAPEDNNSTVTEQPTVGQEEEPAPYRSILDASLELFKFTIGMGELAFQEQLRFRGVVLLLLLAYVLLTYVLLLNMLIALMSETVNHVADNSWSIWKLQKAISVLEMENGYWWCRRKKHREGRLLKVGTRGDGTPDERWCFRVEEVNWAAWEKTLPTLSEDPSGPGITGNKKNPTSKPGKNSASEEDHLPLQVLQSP

[4] = system: chick orthologue of rat VR1 (pCVR2); assay: Electrophysiological and calcium-imaging analysis of HEK293 cells transfected with pCVR2; type: cell-based
VR1 [5] = molecular target: T1, VR1; assay: Two-electrode voltage clamp of VR1-injected oocytes: capsaicin, heat, heat plus ruthenium red; type: cell-based; conditions: n=5; for mean inward current response ± s.e.m.: Vhold=-60 mV
Procedure: as §1, with “cells).” for “cells). The asterisk indicates a significant difference from water-injected oocytes (T-test, P<0.0005).”
as §2

COc1ccc(CCCOC(Cn2ccnc2)c2ccc(OC)cc2)cc1 (centres unmarked) [SKF 96365]
effect on capsaicin-evoked currents (VR1 [1]; SKF 96365 20 μM, VR1-expressing oocytes): no effect

COc1cc(CNC(=O)CCCC/C=C/C(C)C)ccc1O [capsaicin]
effect of reduced pH on capsaicin response (VR1 [2]): did not augment | recovery of current response following agonist removal (VR1 [1]; VR1-expressing oocytes): returned rapidly to baseline | Hill coefficient (VR1 [1]): 2.08 | response to capsaicin (water-injected oocytes): no response | decrease of response between first and third applications (VR1 [3]; absence of extracellular calcium, n=3): 4.7±2.3% | decrease of response between first and third applications (desensitizing component) (VR1 [3]; calcium-containing bath solution, n=5): 87±4.3% | activation of VRRP-1 (VRRP-1): does not appear to be activated | response of the encoded protein ([4]; capsaicin): not to capsaicin | mean inward current response ± s.e.m. (VR1 [5]; capsaicin 1 μM): 1221±148 nA

Oc1cc2c(cc1O)CN(C(=S)NCCc1ccc(Cl)cc1)CCC2 [capsazepine]
pIC50 (VR1 [1]; VR1-expressing oocytes, CaCl2 2 mM in place of BaCl2, read-out: IC50, block of capsaicin-evoked responses): 6.55 | antagonism of responses to resiniferatoxin (50 nM) (VR1 [1]; capsazepine 5 μM): reversibly antagonized | block of capsaicin activity (cap; 0.6 μM) (VR1 [1]; capsazepine 10 μM): reversible

C=C(C)[C@]12C[C@@H](C)[C@@]34O[C@](Cc5ccccc5)(O[C@@H]1[C@@H]3C=C(COC(=O)Cc1ccc(O)c(OC)c1)C[C@]1(O)C(=O)C(C)=C[C@@H]41)O2 [resiniferatoxin]
pEC50 (VR1 [1]): 7.41 | potency relative to capsaicin (VR1 [1]; EC50 comparison in VR1-expressing oocytes): approximately 20 fold | recovery of current response following agonist removal (VR1 [1]; VR1-expressing oocytes): often failed to recover | Hill coefficient (VR1 [1]): 1.95 | response of the encoded protein ([4]; high doses of resiniferatoxin): responds

N.N.N.N.N.N.N.N.N.N.N.N.N.N.[Cl-].[Cl-].[Cl-].[Cl-].[Cl-].[Cl-].[O-2].[O-2].[Ru+3].[Ru+3].[Ru+4] [ruthenium red]
antagonism of responses to resiniferatoxin (50 nM) (VR1 [1]; ruthenium red 10 μM): reversibly antagonized | block of capsaicin-evoked responses (cap; 0.6 μM) (VR1 [1]; ruthenium red 10 μM): blocked capsaicin-evoked responses | inhibition of heat response (water-injected oocytes; ruthenium red 10 μM, n=5): 21±26% | mean inward current response ± s.e.m. (VR1 [5]; heat (50° C.) plus ruthenium red 10 μM): 243±47 nA | inhibition of heat response (VR1 [5]; ruthenium red 10 μM, heat 50° C., VR1-injected oocytes): 88±2%
